US8952024B2, “Herbicidal pyrimidone derivatives” (E I du Pont de Nemours and Company, priority 2009, dated 2015)

How the values were obtained:
Test in all cases: Test B pre-/postemergence plant response
Type in all cases: in vivo
[1] = test system: Italian ryegrass (Lolium multiflorum); details: for Plant response rating, Ryegrass, Italian: Postemergence
Text: (§1) Seeds of plant species selected from blackgrass (Alopecurus myosuroides), downy bromegrass (Bromus tectorum), green foxtail (Setaria viridis), Italian ryegrass (Lolium multiflorum), wheat (Triticum aestivum), wild oat (Avena fatua), deadnettle (henbit deadnettle, Lamium amplexicaule), galium (catchweed bedstraw, Galium aparine), bermudagrass (Cynodon dactylon), Surinam grass (Brachiaria decumbens), cocklebur (Xanthium strumarium), corn (Zea mays), large crabgrass (Digitaria sanguinalis), woolly cupgrass (Eriochloa villosa), giant foxtail (Setaria faberii), goosegrass (Eleusine indica), johnsongrass (Sorghum halepense), kochia (Kochia scoparia), lambsquarters (Chenopodium album), morningglory (Ipomoea coccinea), nightshade (eastern black nightshade, Solanum ptycanthum), yellow nutsedge (Cyperus esculentus), pigweed (Amaranthus retroflexus), ragweed (common ragweed, Ambrosia elatior), Russian thistle (Salsola kali), soybean (Glycine max), sunflower (common oilseed sunflower, Helianthus annuus) and velvetleaf (Abutilon theophrasti) were planted into a blend of loam soil and sand and treated preemergence with test compounds formulated in a non-phytotoxic solvent mixture which included a surfactant.
(§2) At the same time, plants selected from these crop and weed species and also winter barley (Hordeum vulgare), canarygrass (Phalaris minor), chickweed (Stellaria media) and windgrass (Apera spica-venti) were planted in pots containing Redi-Earth® planting medium (Scotts Company, 14111 Scottslawn Road, Marysville, Ohio 43041) comprising spaghnum peat moss, vermiculite, wetting agent and starter nutrients and treated with postemergence applications of some of the test chemicals formulated in the same manner. Plants ranged in height from 2 to 18 cm (1- to 4-leaf stage) for postemergence treatments.
(§3) Treated plants and controls were maintained in a greenhouse for 13 to 15 days, after which time all treated plants were visually evaluated and compared to controls. Plant response ratings, summarized in Table B, are based on a scale of 0 to 100 where 0 is no effect and 100 is complete control. A dash (-) response means no test result.

[2] = test system: Surinam grass (Brachiaria decumbens); details: for Plant response rating, Surinam Grass: Postemergence
Text: as §1, §2, §3

[3] = test system: blackgrass (Alopecurus myosuroides); details: for Plant response rating, Blackgrass: Postemergence
Text: as §1, §2, §3

corn (Zea mays) = details: for Plant response rating, Corn: Postemergence
Text: as §1, §2, §3

[4] = test system: downy bromegrass (Bromus tectorum); details: for Plant response rating, Bromegrass, Downy: Postemergence
Text: as §1, §2, §3

[5] = test system: giant foxtail (Setaria faberii); details: for Plant response rating, Foxtail, Giant: Postemergence
Text: as §1, §2, §3

[6] = test system: johnsongrass (Sorghum halepense); details: for Plant response rating, Johnsongrass: Postemergence
Text: as §1, §2, §3

kochia (Kochia scoparia) = details: for Plant response rating, Kochia: Postemergence
Text: as §1, §2, §3

[7] = test system: pigweed (Amaranthus retroflexus); details: for Plant response rating, Pigweed: Postemergence
Text: as §1, §2, §3

[8] = test system: ragweed (common ragweed, Ambrosia elatior); details: for Plant response rating, Ragweed: Postemergence
Text: as §1, §2, §3

soybean (Glycine max) = details: for Plant response rating, Soybean: Postemergence
Text: as §1, §2, §3

[9] = test system: velvetleaf (Abutilon theophrasti); details: for Plant response rating, Velvetleaf: Postemergence
Text: as §1, §2, §3

[10] = test system: woolly cupgrass (Eriochloa villosa); details: for Plant response rating, Cupgrass, Woolly: Postemergence
Text: as §1, §2, §3

[11] = 62 g ai/ha, postemergence, 0 is no effect, 100 is complete control, 13 to 15 days
[12] = 31 g ai/ha, 0 to 100 scale (0 no effect, 100 complete control)
[13] = 125 g ai/ha, scale 0 to 100 (0 no effect, 100 complete control)
[14] = 250 g ai/ha, scale 0 to 100 (0 no effect, 100 complete control)

COCCn1c(-c2cccc(F)c2)ncc(C(=O)C2=C(O)CCCC2=O)c1=O [Compound 123] was tested, and the “Ryegrass, Italian plant response rating (0 to 100 scale)” value [1, 11] was 5, the “Plant response rating, Ryegrass, Italian” value [1, 12] was 0 and the “Plant response rating, Ryegrass, Italian” value [1, 13] was 5. The “Plant response rating, Ryegrass, Italian” value [1, 14] was 50, the “Surinam Grass plant response rating (0 to 100 scale)” value [2, 11] was 75 and the “Plant response rating, Surinam Grass” value [2, 12] was 25. The “Plant response rating, Surinam Grass” value [2, 13] was 85, the “Plant response rating, Surinam Grass” value [2, 14] was 85 and the “Blackgrass plant response rating (0 to 100 scale)” value [3, 11] was 20. For the same compound, the “Plant response rating, Blackgrass” value [3, 12] was 20, the “Plant response rating, Blackgrass” value [3, 13] was 40 and the “Plant response rating, Blackgrass” value [3, 14] was 80. For the same compound, the “Corn plant response rating (0 to 100 scale)” value (corn (Zea mays); [11]) was 70, the “Plant response rating, Corn” value (corn (Zea mays); [12]) was 35 and the “Plant response rating, Corn” value (corn (Zea mays); [13]) was 75. For the same compound, the “Plant response rating, Corn” value (corn (Zea mays); [14]) was 80, the “Bromegrass, Downy plant response rating (0 to 100 scale)” value [4, 11] was 5 and the “Plant response rating, Bromegrass, Downy” value [4, 12] was 0. The “Plant response rating, Bromegrass, Downy” value [4, 13] was 10, the “Plant response rating, Bromegrass, Downy” value [4, 14] was 45 and the “Foxtail, Giant plant response rating (0 to 100 scale)” value [5, 11] was 75. For the same compound, the “Plant response rating, Foxtail, Giant” value [5, 12] was 65, the “Plant response rating, Foxtail, Giant” value [5, 13] was 80 and the “Plant response rating, Foxtail, Giant” value [5, 14] was 85. For the same compound, the “Johnsongrass plant response rating (0 to 100 scale)” value [6, 11] was 65, the “Plant response rating, Johnsongrass” value [6, 12] was 35 and the “Plant response rating, Johnsongrass” value [6, 13] was 75. The “Plant response rating, Johnsongrass” value [6, 14] was 90, the “Kochia plant response rating (0 to 100 scale)” value (kochia (Kochia scoparia); [11]) was 65 and the “Plant response rating, Kochia” value (kochia (Kochia scoparia); [12]) was 60. The “Plant response rating, Kochia” value (kochia (Kochia scoparia); [13]) was 80, the “Plant response rating, Kochia” value (kochia (Kochia scoparia); [14]) was 100 and the “Pigweed plant response rating (0 to 100 scale)” value [7, 11] was 98. The “Plant response rating, Pigweed” value [7, 12] was 80, the “Plant response rating, Pigweed” value [7, 13] was 100 and the “Plant response rating, Pigweed” value [7, 14] was 100. The “Ragweed plant response rating (0 to 100 scale)” value [8, 11] was 85, the “Plant response rating, Ragweed” value [8, 12] was 70 and the “Plant response rating, Ragweed” value [8, 13] was 95. For the same compound, the “Plant response rating, Ragweed” value [8, 14] was 98, the “Soybean plant response rating (0 to 100 scale)” value (soybean (Glycine max); [11]) was 75 and the “Plant response rating, Soybean” value (soybean (Glycine max); [12]) was 60. The “Plant response rating, Soybean” value (soybean (Glycine max); [13]) was 85, the “Plant response rating, Soybean” value (soybean (Glycine max); [14]) was 90 and the “Velvetleaf plant response rating (0 to 100 scale)” value [9, 11] was 90. The “Plant response rating, Velvetleaf” value [9, 12] was 80, the “Plant response rating, Velvetleaf” value [9, 13] was 95 and the “Plant response rating, Velvetleaf” value [9, 14] was 100. The “Cupgrass, Woolly plant response rating (0 to 100 scale)” value [10, 11] was 45, the “Plant response rating, Cupgrass, Woolly” value [10, 12] was 25 and the “Plant response rating, Cupgrass, Woolly” value [10, 13] was 75. For the same compound, the “Plant response rating, Cupgrass, Woolly” value [10, 14] was 90.
